Test results from publication PMC5643073 (ACS combinatorial science, 2017).

Assays:
in vitro = conditions: human
Cytotoxicity assay = conditions: human, HEK293T cells

SMILES	CC50 at 18 h (in vitro) [µM]	CC50 at 18 h (Cytotoxicity assay) [µM]
Cc1cc(SCc2sc(-c3ccc(C(F)(F)F)cc3)nc2C)ccc1OCC(=O)O [Compound 13]	> 33	
Cc1cc(SCc2sc(-c3ccc(C(F)(F)F)c(F)c3)nc2C)ccc1OCC(=O)O [Compound 31]		> 50
